Experimental data reported in patent US9371320B2, “Heterocyclic compound” (TAKEDA PHARMACEUTICAL COMPANY LIMITED, priority 2012, dated 2016).

Columns and labels:
JAK1 = biological target: T1, JAK1 (Homo sapiens, UniProt P23458); test: JAK1 enzyme inhibition test (LANCE method); assay type: biochemical; details: for inhibition at 10 µM: test compound 10 μM, read-out: Inhibitory rate (%) JAK1 10 μM; for inhibition at 1 µM: test compound 1 μM, read-out: Inhibitory rate (%) JAK1 1 μM
T1 construct: purchased Invitrogen
T1 sequence (P23458 whole entry): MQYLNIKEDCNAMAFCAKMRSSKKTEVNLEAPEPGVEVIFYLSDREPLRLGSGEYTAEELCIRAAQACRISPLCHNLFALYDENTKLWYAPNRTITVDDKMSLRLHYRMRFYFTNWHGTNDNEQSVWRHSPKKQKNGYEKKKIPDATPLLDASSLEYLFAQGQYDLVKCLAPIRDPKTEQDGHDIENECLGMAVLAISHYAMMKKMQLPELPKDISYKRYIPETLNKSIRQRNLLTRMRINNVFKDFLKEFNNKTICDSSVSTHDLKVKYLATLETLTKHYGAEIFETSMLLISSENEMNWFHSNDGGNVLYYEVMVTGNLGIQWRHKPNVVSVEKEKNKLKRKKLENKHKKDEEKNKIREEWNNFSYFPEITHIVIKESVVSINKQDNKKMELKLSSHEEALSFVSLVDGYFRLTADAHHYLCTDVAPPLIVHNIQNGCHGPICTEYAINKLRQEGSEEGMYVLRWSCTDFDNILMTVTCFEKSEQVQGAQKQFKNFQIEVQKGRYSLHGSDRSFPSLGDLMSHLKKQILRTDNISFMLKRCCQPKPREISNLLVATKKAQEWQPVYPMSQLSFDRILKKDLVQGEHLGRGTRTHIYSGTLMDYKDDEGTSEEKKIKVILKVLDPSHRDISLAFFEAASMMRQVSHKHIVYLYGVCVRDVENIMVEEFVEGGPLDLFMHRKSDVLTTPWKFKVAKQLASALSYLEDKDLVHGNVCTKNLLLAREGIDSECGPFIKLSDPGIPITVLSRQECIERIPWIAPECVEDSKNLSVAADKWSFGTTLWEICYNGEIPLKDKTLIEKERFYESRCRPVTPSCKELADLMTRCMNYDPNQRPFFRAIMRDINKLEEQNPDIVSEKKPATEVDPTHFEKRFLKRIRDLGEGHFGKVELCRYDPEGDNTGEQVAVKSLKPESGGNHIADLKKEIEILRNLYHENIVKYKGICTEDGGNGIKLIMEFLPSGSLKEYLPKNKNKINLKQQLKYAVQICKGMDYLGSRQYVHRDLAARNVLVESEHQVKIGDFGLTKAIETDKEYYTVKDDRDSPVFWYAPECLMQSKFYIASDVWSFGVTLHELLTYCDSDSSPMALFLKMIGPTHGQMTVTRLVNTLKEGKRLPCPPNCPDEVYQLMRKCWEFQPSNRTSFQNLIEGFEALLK
How it was run: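 Reactions ran 1 h at room temperature in HEPES pH 7.5/MgCl2 buffer, with ATP solution at 150 μM and JAK1 and ULight peptide solutions at 187.5 ng/mL and 300 nM. Reactions were stopped with EDTA, and phosphorylation was read by Eu antibody time-resolved fluorescence at 665 nm. Inhibition was scaled to a no-enzyme control as 100%.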

Tyk2 = biological target: T2, Tyk2 (Homo sapiens, UniProt P29597); test: Tyk2 enzyme inhibition test (LANCE method); assay type: biochemical; details: for inhibition at 10 µM: test compound 10 μM, read-out: Inhibitory rate (%) Tyk2 10 μM; for inhibition at 1 µM: test compound 1 μM, read-out: Inhibitory rate (%) Tyk2 1 μM
T2 construct: purchased Invitrogen
T2 sequence (P29597 whole entry): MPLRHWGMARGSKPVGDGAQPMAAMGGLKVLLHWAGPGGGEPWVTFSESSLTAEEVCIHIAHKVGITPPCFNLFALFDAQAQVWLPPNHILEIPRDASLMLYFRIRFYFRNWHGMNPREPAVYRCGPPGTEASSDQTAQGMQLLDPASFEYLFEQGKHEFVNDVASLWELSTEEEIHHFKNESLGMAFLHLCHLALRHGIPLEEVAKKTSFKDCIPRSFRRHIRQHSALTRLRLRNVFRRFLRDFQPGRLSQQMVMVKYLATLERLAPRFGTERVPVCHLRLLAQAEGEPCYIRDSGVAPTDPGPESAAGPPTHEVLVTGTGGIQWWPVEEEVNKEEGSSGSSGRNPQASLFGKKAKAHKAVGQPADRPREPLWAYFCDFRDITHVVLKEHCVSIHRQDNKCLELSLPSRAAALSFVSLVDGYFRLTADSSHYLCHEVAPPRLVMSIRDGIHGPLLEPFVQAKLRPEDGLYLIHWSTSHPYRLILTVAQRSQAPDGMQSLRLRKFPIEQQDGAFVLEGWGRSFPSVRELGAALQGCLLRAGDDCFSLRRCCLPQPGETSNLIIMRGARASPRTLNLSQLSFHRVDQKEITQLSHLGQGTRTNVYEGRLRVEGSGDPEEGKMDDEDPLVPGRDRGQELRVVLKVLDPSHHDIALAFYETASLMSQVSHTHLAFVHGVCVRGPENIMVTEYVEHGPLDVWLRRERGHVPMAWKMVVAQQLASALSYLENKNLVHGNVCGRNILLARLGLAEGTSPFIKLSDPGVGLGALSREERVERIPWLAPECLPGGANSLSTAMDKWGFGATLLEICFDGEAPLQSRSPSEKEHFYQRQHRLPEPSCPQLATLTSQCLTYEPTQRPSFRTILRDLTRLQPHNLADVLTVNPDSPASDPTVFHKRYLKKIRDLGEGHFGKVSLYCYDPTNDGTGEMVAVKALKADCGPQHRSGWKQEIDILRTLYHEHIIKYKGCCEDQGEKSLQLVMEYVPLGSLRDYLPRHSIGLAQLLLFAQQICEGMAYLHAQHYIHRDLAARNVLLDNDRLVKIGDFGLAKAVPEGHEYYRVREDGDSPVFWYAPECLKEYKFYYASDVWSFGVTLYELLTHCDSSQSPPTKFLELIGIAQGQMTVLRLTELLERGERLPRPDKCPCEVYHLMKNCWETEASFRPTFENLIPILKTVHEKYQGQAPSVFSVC
How it was run: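 LANCE TR-FRET read-out (ex 340/em 665 nm, 100 μs delay) of ULight-JAK1 phosphorylation, with no-enzyme wells as 100% inhibition. Reaction run 1 h at room temperature in pH 7.5 HEPES buffer; enzyme 375 ng/mL, substrate 300 nM and ATP 30 μM are solution concentrations before mixing.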

Row | SMILES | inhibition at 10 µM (JAK1) [%] | inhibition at 10 µM (Tyk2) [%] | inhibition at 1 µM (JAK1) [%] | inhibition at 1 µM (Tyk2) [%]
1 | CNC(=O)Cc1ccc(F)c(-c2nn(-c3c(F)cccc3F)c3cc[nH]c(=O)c23)c1 [Example 293, 2-(3-(1-(2,6-difluorophenyl)-4-oxo-4,5-dihydro-1H-pyrazolo[4,3-c]pyridin-3-yl)-4-fluorophenyl)-N-methylacetamide] | 0 | 22 | – | –
2 | CNC(=O)c1ccc(-c2nn(-c3c(F)cccc3F)c3cc[nH]c(=O)c23)c(F)c1 [Example 294, 4-(1-(2,6-difluorophenyl)-4-oxo-4,5-dihydro-1H-pyrazolo[4,3-c]pyridin-3-yl)-3-fluoro-N-methylbenzamide] | – | – | 35 | 92
3 | CNC(=O)c1ccc(-c2nn(-c3c(F)cccc3F)c3cc[nH]c(=O)c23)c(Cl)c1 [Example 295, 3-chloro-4-(1-(2,6-difluorophenyl)-4-oxo-4,5-dihydro-1H-pyrazolo[4,3-c]pyridin-3-yl)-N-methylbenzamide] | 24 | 80 | – | –
4 | NC(=O)c1cc(-c2nn(C3CCCC3)c3c(Cl)c[nH]c(=O)c23)cs1 [Example 296, 4-(7-chloro-1-cyclopentyl-4-oxo-4,5-dihydro-1H-pyrazolo[4,3-c]pyridin-3-yl)thiophene-2-carboxamide] | – | – | 90 | 96
5 | NS(=O)(=O)c1ccc(Nc2nn(C3CCCC3)c3cc[nH]c(=O)c23)cc1 [Example 297, 4-((1-cyclopentyl-4-oxo-4,5-dihydro-1H-pyrazolo[4,3-c]pyridin-3-yl)amino)benzenesulfonamide] | – | – | 98 | 99
6 | NC(=O)c1cc(-c2nn([C@H]3CC[C@@H](N)CC3)c3cc[nH]c(=O)c23)cs1 [Example 298, 4-(1-(cis-4-aminocyclohexyl)-4-oxo-4,5-dihydro-1H-pyrazolo[4,3-c]pyridin-3-yl)thiophene-2-carboxamide] | 81 | 58 | – | –
7 | NC(=O)c1cc(-c2nn([C@H]3CC[C@H](N)CC3)c3cc[nH]c(=O)c23)cs1 [Example 299, 4-(1-(trans-4-aminocyclohexyl)-4-oxo-4,5-dihydro-1H-pyrazolo[4,3-c]pyridin-3-yl)thiophene-2-carboxamide] | – | – | 99 | 99
8 | Nc1ncc(-c2nn(-c3c(F)cccc3F)c3cc[nH]c(=O)c23)cn1 [Example 300, 3-(2-aminopyrimidin-5-yl)-1-(2,6-difluorophenyl)-1,5-dihydro-4H-pyrazolo[4,3-c]pyridin-4-one] | – | – | 68 | 83
9 | CC(=O)N1CCC(c2ccc(-c3nn(-c4c(F)cccc4F)c4cc[nH]c(=O)c34)cc2)CC1 [Example 301, 3-(4-(1-acetylpiperidin-4-yl)phenyl)-1-(2,6-difluorophenyl)-1,5-dihydro-4H-pyrazolo[4,3-c]pyridin-4-one] | – | – | 97 | 99
10 | COc1cc(N)cc(F)c1-n1cc(-c2csc(C(N)=O)c2)c2c(=O)[nH]ccc21 [Example 302, 4-(1-(4-amino-2-fluoro-6-methoxyphenyl)-4-oxo-4,5-dihydro-1H-pyrrolo[3,2-c]pyridin-3-yl)thiophene-2-carboxamide] | – | – | 97 | 95
11 | Nc1cc(F)c(-n2nc(-c3ccc(S(N)(=O)=O)cc3)c3c(=O)[nH]ccc32)c(F)c1 [Example 303, 4-(1-(4-amino-2,6-difluorophenyl)-4-oxo-4,5-dihydro-1H-pyrazolo[4,3-c]pyridin-3-yl)benzenesulfonamide] | – | – | 99 | 100
12 | O=C1COCCN1c1ccc(-c2nn(-c3c(F)cccc3F)c3cc[nH]c(=O)c23)cc1 [Example 304, 1-(2,6-difluorophenyl)-3-(4-(3-oxomorpholin-4-yl)phenyl)-1,5-dihydro-4H-pyrazolo[4,3-c]pyridin-4-one] | – | – | 97 | 99
13 | N#Cc1cccc(F)c1-n1nc(-c2ccc(N3CCOCC3)cc2)c2c(=O)[nH]ccc21 [Example 305, 3-fluoro-2-(3-(4-(morpholin-4-yl)phenyl)-4-oxo-4,5-dihydro-1H-pyrazolo[4,3-c]pyridin-1-yl)benzonitrile] | – | – | 93 | 99
14 | N#Cc1cccc(F)c1-n1nc(-c2ccc(N3CCOCC3)nc2)c2c(=O)[nH]ccc21 [Example 306, 3-fluoro-2-(3-(6-(morpholin-4-yl)pyridin-3-yl)-4-oxo-4,5-dihydro-1H-pyrazolo[4,3-c]pyridin-1-yl)benzonitrile] | – | – | 90 | 98
15 | CNC(=O)c1ccc(-c2nn(-c3c(F)cccc3C#N)c3cc[nH]c(=O)c23)cc1 [Example 307, 4-(1-(2-cyano-6-fluorophenyl)-4-oxo-4,5-dihydro-1H-pyrazolo[4,3-c]pyridin-3-yl)-N-methylbenzamide] | – | – | 92 | 99
16 | O=c1[nH]ccc2c1c(-c1ccc(N3CCOCC3)cc1)nn2-c1c(F)cc(F)cc1F [Example 308, 3-(4-(morpholin-4-yl)phenyl)-1-(2,4,6-trifluorophenyl)-1,5-dihydro-4H-pyrazolo[4,3-c]pyridin-4-one] | – | – | 91 | 98
17 | O=c1[nH]ccc2c1c(-c1ccc(N3CCOCC3)nc1)nn2-c1c(F)cccc1F [Example 309, 1-(2,6-difluorophenyl)-3-(6-(morpholin-4-yl)pyridin-3-yl)-1,5-dihydro-4H-pyrazolo[4,3-c]pyridin-4-one] | – | – | 93 | 99
18 | CNC(=O)C1CCN(c2ccc(-c3nn(-c4c(F)cccc4F)c4cc[nH]c(=O)c34)cc2)CC1 [Example 310, 1-(4-(1-(2,6-difluorophenyl)-4-oxo-4,5-dihydro-1H-pyrazolo[4,3-c]pyridin-3-yl)phenyl)-N-methylpiperidine-4-carboxamide] | – | – | 93 | 100
19 | CS(=O)(=O)N1CCN(c2ccc(-c3nn(-c4c(F)cccc4F)c4cc[nH]c(=O)c34)cc2)CC1 [Example 311, 1-(2,6-difluorophenyl)-3-(4-(4-(methylsulfonyl)piperazin-1-yl)phenyl)-1,5-dihydro-4H-pyrazolo[4,3-c]pyridin-4-one] | – | – | 95 | 99
20 | O=C(CO)N1CCN(c2ccc(-c3nn(-c4c(F)cccc4F)c4cc[nH]c(=O)c34)cc2)CC1 [Example 312, 1-(2,6-difluorophenyl)-3-(4-(4-glycoloylpiperazin-1-yl)phenyl)-1,5-dihydro-4H-pyrazolo[4,3-c]pyridin-4-one] | – | – | 94 | 99
21 | COCC(=O)N1CCN(c2ccc(-c3nn(-c4c(F)cccc4F)c4cc[nH]c(=O)c34)cc2)CC1 [Example 313, 1-(2,6-difluorophenyl)-3-(4-(4-(methoxyacetyl)piperazin-1-yl)phenyl)-1,5-dihydro-4H-pyrazolo[4,3-c]pyridin-4-one] | – | – | 95 | 100
22 | CC1(C)CCCC1n1nc(-c2ccc(N3CCOCC3)cc2)c2c(=O)[nH]ccc21 (centres unmarked) [Example 314, 1-(2,2-dimethylcyclopentyl)-3-(4-(morpholin-4-yl)phenyl)-1,5-dihydro-4H-pyrazolo[4,3-c]pyridin-4-one] | – | – | 95 | 99
23 | N#Cc1cccc(F)c1-n1nc(-c2cn[nH]c2)c2c(=O)[nH]ccc21 [Example 315, 3-fluoro-2-(4-oxo-3-(1H-pyrazol-4-yl)-4,5-dihydro-1H-pyrazolo[4,3-c]pyridin-1-yl)benzonitrile] | – | – | 97 | 98
24 | CC(=O)N1CCC(c2ccc(-c3nn(-c4c(F)cccc4F)c4cc[nH]c(=O)c34)cc2)C(F)(F)C1 (centres unmarked) [Example 316, 3-(4-(1-acetyl-3,3-difluoropiperidin-4-yl)phenyl)-1-(2,6-difluorophenyl)-1,5-dihydro-4H-pyrazolo[4,3-c]pyridin-4-one] | – | – | 99 | 99
25 | O=c1[nH]ccc2c1c(-c1ccc(N3CCOCC3)cc1)nn2C1CCCCC1(F)F (centres unmarked) [Example 317, 1-(2,2-difluorocyclohexyl)-3-(4-(morpholin-4-yl)phenyl)-1,5-dihydro-4H-pyrazolo[4,3-c]pyridin-4-one] | – | – | 96 | 99
